Key:
[1] = system: barnyardgrjass; experiment: Foliar spread test for upland field; format: in vivo, Eschinochloa crusgalli; parameters: key: 0 = normal development, 5 = all killed (6 ranks vs. untreated); settings: foliar spray, 500 ppm, 3 weeks, glass house 25° C.
Method: (§1) The herbicidal effects are evaluated according to the following 6 ranks as compared with non-treated district. (0: normal development, 1: Less damaged, 2: Slightly damaged, 3: Moderately damaged, 4: Severely damaged, 5: All killed). Incidentally, “-” in the column means not investigated.
(§2) Wagner pots, each having an area of 1/5000 are, were packed with volcanic ash soil and then each seed of corn, soybean, cotton, wheat, solgum, sugar beat, Large crabgrass, barnyardgrjass, green foxtail, blackgrass, annual bluegrass, common lambsquarters, livid amaranth, velvetleaf, morning glory, Xanthium pensylvanicum and Cassia obtusifolia was planted, covered with soil and grown in a glass house at an average temperature of 25° C. for about 2 weeks.
(§3) Each wettable powder of the desired compounds (I) shown in Tables 1 to 21, 24, 25, 28 and 29 prepared in accordance with Example 2 was diluted to 500 ppm with water containing a surfactant (0.5%) and then uniformly sprayed on the above respective plants.
(§4) After these plants were controlled in a glass house at an average temperature of 25° C. for 3 weeks, the herbicidal effects thereof were investigated.
(§5) The herbicidal effects were evaluated according to the evaluation method described in the above (1).

[2] = system: barnyard grass; experiment: Soil treatment test for upland field; format: in vivo, Eschinochloa crusgalli; parameters: key: 0 = normal development, 5 = all killed; settings: 500 g/ha, 3 weeks, glass house 25° C.
Method: as §1
(§6) Wagner pots, each having an area of 1/5000 are, were packed with Ube soil (alluvial soil), and then each seed of corn, soybean, cotton, wheat, solgum, sugar beat, Large crabgrass, barnyard grass, green foxtail, blackgrass, annual bluegrass, common lambsquarters, livid amaranth, velvetleaf, morning glory, common Cocklebur (Xanthium strumarium) and sicklepod (Cassia obtusifolia) were planted and covered with soil.
(§7) Each wettable powder of the desired compounds (I) shown in Tables 1 to 21, 24, 25, 28 and 29 prepared in accordance with Example 2 was diluted with water containing a surfactant (0.05%) and uniformly sprayed on the surface of each soil so that an effective concentration of the compound (I) in each herbicide became 500 g/ha.
(§8) These plants were controlled in a glass house at an average temperature of 25° C. for 3 weeks, and then herbicidal effects thereof were investigated.
as §5

[3] = system: annual bluegrass; experiment: Soil treatment test for upland field; format: in vivo, Poa annua; parameters: key: 0 = normal development, 5 = all killed; settings: 500 g/ha, 3 weeks, glass house 25° C.
Method: as §1, §6, §7, §8, §5

[4] = system: Large crabgrass; experiment: Soil treatment test for upland field; format: in vivo, Digitaria adscendens; parameters: key: 0 = normal development, 5 = all killed; settings: 500 g/ha, 3 weeks, glass house 25° C.
Method: as §1, §6, §7, §8, §5

[5] = system: annual bluegrass; experiment: Foliar spread test for upland field; format: in vivo, Poa annua; parameters: key: 0 = normal development, 5 = all killed (6 ranks vs. untreated); settings: foliar spray, 500 ppm, 3 weeks, glass house 25° C.
Method: as §1, §2, §3, §4, §5

[6] = system: solgum; experiment: Foliar spread test for upland field; format: in vivo; parameters: key: 0 = normal development, 5 = all killed (6 ranks vs. untreated); settings: foliar spray, 500 ppm, 3 weeks, glass house 25° C.
Method: as §1, §2, §3, §4, §5

[7] = system: corn; experiment: Foliar spread test for upland field; format: in vivo; parameters: key: 0 = normal development, 5 = all killed (6 ranks vs. untreated); settings: foliar spray, 500 ppm, 3 weeks, glass house 25° C.
Method: as §1, §2, §3, §4, §5

[8] = system: wheat; experiment: Foliar spread test for upland field; format: in vivo; parameters: key: 0 = normal development, 5 = all killed (6 ranks vs. untreated); settings: foliar spray, 500 ppm, 3 weeks, glass house 25° C.
Method: as §1, §2, §3, §4, §5

[9] = system: cotton; experiment: Foliar spread test for upland field; format: in vivo; parameters: key: 0 = normal development, 5 = all killed (6 ranks vs. untreated); settings: foliar spray, 500 ppm, 3 weeks, glass house 25° C.
Method: as §1, §2, §3, §4, §5

[10] = system: soybean; experiment: Foliar spread test for upland field; format: in vivo; parameters: key: 0 = normal development, 5 = all killed (6 ranks vs. untreated); settings: foliar spray, 500 ppm, 3 weeks, glass house 25° C.
Method: as §1, §2, §3, §4, §5

[11] = system: sugar beat; experiment: Foliar spread test for upland field; format: in vivo; parameters: key: 0 = normal development, 5 = all killed (6 ranks vs. untreated); settings: foliar spray, 500 ppm, 3 weeks, glass house 25° C.
Method: as §1, §2, §3, §4, §5

[12] = system: common lambsquarters; experiment: Soil treatment test for upland field; format: in vivo, Chenopodium album; parameters: key: 0 = normal development, 5 = all killed; settings: 500 g/ha, 3 weeks, glass house 25° C.
Method: as §1, §6, §7, §8, §5

[13] = system: blackgrass; experiment: Soil treatment test for upland field; format: in vivo, Alopecurus aegualis; parameters: key: 0 = normal development, 5 = all killed; settings: 500 g/ha, 3 weeks, glass house 25° C.
Method: as §1, §6, §7, §8, §5

[14] = system: common lambsquarters; experiment: Foliar spread test for upland field; format: in vivo, Chenopodium album; parameters: key: 0 = normal development, 5 = all killed (6 ranks vs. untreated); settings: foliar spray, 500 ppm, 3 weeks, glass house 25° C.
Method: as §1, §2, §3, §4, §5

[15] = system: solgum; experiment: Soil treatment test for upland field; format: in vivo; parameters: key: 0 = normal development, 5 = all killed; settings: 500 g/ha, 3 weeks, glass house 25° C.
Method: as §1, §6, §7, §8, §5

[16] = system: corn; experiment: Soil treatment test for upland field; format: in vivo; parameters: key: 0 = normal development, 5 = all killed; settings: 500 g/ha, 3 weeks, glass house 25° C.
Method: as §1, §6, §7, §8, §5

[17] = system: wheat; experiment: Soil treatment test for upland field; format: in vivo; parameters: key: 0 = normal development, 5 = all killed; settings: 500 g/ha, 3 weeks, glass house 25° C.
Method: as §1, §6, §7, §8, §5

[18] = system: soybean; experiment: Soil treatment test for upland field; format: in vivo; parameters: key: 0 = normal development, 5 = all killed; settings: 500 g/ha, 3 weeks, glass house 25° C.
Method: as §1, §6, §7, §8, §5

[19] = system: sugar beat; experiment: Soil treatment test for upland field; format: in vivo; parameters: key: 0 = normal development, 5 = all killed; settings: 500 g/ha, 3 weeks, glass house 25° C.
Method: as §1, §6, §7, §8, §5

[20] = system: livid amaranth; experiment: Soil treatment test for upland field; format: in vivo, Amaranthus lividus; parameters: key: 0 = normal development, 5 = all killed; settings: 500 g/ha, 3 weeks, glass house 25° C.
Method: as §1, §6, §7, §8, §5

[21] = system: velvetleaf; experiment: Soil treatment test for upland field; format: in vivo, Abutilon theophrasti; parameters: key: 0 = normal development, 5 = all killed; settings: 500 g/ha, 3 weeks, glass house 25° C.
Method: as §1, §6, §7, §8, §5

[22] = system: livid amaranth; experiment: Foliar spread test for upland field; format: in vivo, Amaranthus lividus; parameters: key: 0 = normal development, 5 = all killed (6 ranks vs. untreated); settings: foliar spray, 500 ppm, 3 weeks, glass house 25° C.
Method: as §1, §2, §3, §4, §5

[23] = system: green foxtail; experiment: Foliar spread test for upland field; format: in vivo, Setaria viridis; parameters: key: 0 = normal development, 5 = all killed (6 ranks vs. untreated); settings: foliar spray, 500 ppm, 3 weeks, glass house 25° C.
Method: as §1, §2, §3, §4, §5

[24] = system: velvetleaf; experiment: Foliar spread test for upland field; format: in vivo, Abutilon theophrasti; parameters: key: 0 = normal development, 5 = all killed (6 ranks vs. untreated); settings: foliar spray, 500 ppm, 3 weeks, glass house 25° C.
Method: as §1, §2, §3, §4, §5

[25] = system: blackgrass; experiment: Foliar spread test for upland field; format: in vivo, Alopecurus aegualis; parameters: key: 0 = normal development, 5 = all killed (6 ranks vs. untreated); settings: foliar spray, 500 ppm, 3 weeks, glass house 25° C.
Method: as §1, §2, §3, §4, §5

[26] = system: Large crabgrass; experiment: Foliar spread test for upland field; format: in vivo, Digitaria adscendens; parameters: key: 0 = normal development, 5 = all killed (6 ranks vs. untreated); settings: foliar spray, 500 ppm, 3 weeks, glass house 25° C.
Method: as §1, §2, §3, §4, §5

[27] = system: green foxtail; experiment: Soil treatment test for upland field; format: in vivo, Setaria viridis; parameters: key: 0 = normal development, 5 = all killed; settings: 500 g/ha, 3 weeks, glass house 25° C.
Method: as §1, §6, §7, §8, §5

[28] = system: morning glory; experiment: Foliar spread test for upland field; format: in vivo, Ipomoea spps.; parameters: key: 0 = normal development, 5 = all killed (6 ranks vs. untreated); settings: foliar spray, 500 ppm, 3 weeks, glass house 25° C.
Method: as §1, §2, §3, §4, §5

[29] = system: morning glory; experiment: Soil treatment test for upland field; format: in vivo, Ipomoea spps.; parameters: key: 0 = normal development, 5 = all killed; settings: 500 g/ha, 3 weeks, glass house 25° C.
Method: as §1, §6, §7, §8, §5

Compound	Effects Barnyardgrass [1]	Effects Barnyardgrass [2]	Effects Annual bluegrass [3]	Effects Large crabgrass [4]	Effects Annual bluegrass [5]	Effects Solgum [6]	Effects Corn [7]	Effects Wheat [8]	Effects Sotton [9]	Effects Soybean [10]	Effects Sugar beat [11]	Effects Common lambsquarters [12]	Effects Blackgrass [13]	Effects Common lambsquarters [14]	Effects Solgum [15]	Effects Corn [16]	Effects Wheat [17]	Effects Soybean [18]	Effects Sugar beat [19]	Effects Livid amaranth [20]	further results
CC/C(=C\c1cccc(C(F)(F)F)c1)c1nc2cc(Cl)ccc2o1 [I-c-55, (E)-2-(5-chlorobenzoxazol-2-yl)-1-(3-trifluoromethylphenyl)butene]	4	5	5	5	4	3	3	3	4	5	5	5	5	5	1	1	0	4	5	5	Effects Velvetleaf [21]: 5; Effects Livid amaranth [22]: 4; Effects Green foxtail [23]: 5; Effects Velvetleaf [24]: 4; Effects Blackgrass [25]: 4; Effects Large crabgrass [26]: 4; Effects Green foxtail [27]: 5; Effects Morning glory [28]: 5; Effects Morning glory [29]: 5
CCC(=Cc1cccc(C(F)(F)F)c1)c1nc2cc([N+](=O)[O-])ccc2o1 [I-c-72]	3	5	5	5	4	3	3	2	4	5	4	5	5	5	3	2	2	5	5	5	Effects Velvetleaf [21]: 5; Effects Livid amaranth [22]: 5; Effects Green foxtail [23]: 4; Effects Velvetleaf [24]: 3; Effects Blackgrass [25]: 3; Effects Large crabgrass [26]: 4; Effects Green foxtail [27]: 5; Effects Morning glory [28]: 5; Effects Morning glory [29]: 4
CCCC(=Cc1cccc(C(F)(F)F)c1)c1nc2cc(C(F)(F)F)ccc2o1 [I-c-88]	2	5	5	5	4	3	4	2	5	5	5	5	5	5	4	3	2	5	5	5	Effects Velvetleaf [21]: 5; Effects Livid amaranth [22]: 5; Effects Green foxtail [23]: 5; Effects Velvetleaf [24]: 4; Effects Blackgrass [25]: 5; Effects Large crabgrass [26]: 4; Effects Green foxtail [27]: 5; Effects Morning glory [28]: 5; Effects Morning glory [29]: 5
CCC(=Cc1cccc(C(F)(F)F)c1)c1nc2cc(Cl)c(C)cc2o1 [I-c-131]	3	5	5	5	4	2	3	2	5	5	4	5	5	5	3	1	1	1	5	5	Effects Velvetleaf [21]: 5; Effects Livid amaranth [22]: 5; Effects Green foxtail [23]: 4; Effects Velvetleaf [24]: 4; Effects Blackgrass [25]: 4; Effects Large crabgrass [26]: 4; Effects Green foxtail [27]: 5; Effects Morning glory [28]: 5; Effects Morning glory [29]: 5
CC(=Cc1cccc(C(F)(F)F)c1)c1nc2cc(C#N)c(F)cc2o1 [I-c-135]	3	4	5	5	5	3	2	2	4	4	5	5	5	5	1	1	1	2	5	5	Effects Velvetleaf [21]: 5; Effects Livid amaranth [22]: 5; Effects Green foxtail [23]: 5; Effects Velvetleaf [24]: 4; Effects Blackgrass [25]: 5; Effects Large crabgrass [26]: 4; Effects Green foxtail [27]: 5; Effects Morning glory [28]: 5; Effects Morning glory [29]: 4

Source: patent publication US7402548B2, “Benzoxazole compounds, process for producing the same and herbicides” (Kyoyu Agri Co., Ltd., priority 2000, dated 2008)
